Experimental data from patent US20050233461A1, “High-throughput methods and systems for screening of compounds to treat/prevent kidney disorders” (priority 2002, published 2005).
Counter-ions that a name gives are not always drawn. Like-named read-outs stand apart in the source and are kept apart here.

Legend:
[1] = high throughput screen of components for modifying calcium oxalate crystal growth (crystal imaging)
Experimental: Next, the seed crystals are incubated in supersaturated calcium oxalate medium. This medium may have one or more of components for testing. Nucleation and changes in a crystal property (such as crystal growth) are detected by comparing signals obtained from a sample at different times and/or after changing the medium. For example, a signal for a sample can be taken at the beginning of incubation, and then optionally at one or more times during incubation, and then at the end of incubation. The number and time for obtaining signals from or screening a sample will depend on the particular experiment and will be readily apparent to the skilled artisan. These signals or screens of samples may be photographs of birefringent spots, the size of the spots (measured in pixels), calculations based on the pixels and their distribution in a birefringence- or plain light-based image, in-situ Raman spectroscopy to monitor growth or determine the composition of one or more crystals, signals for the concentration of component(s) in the medium, and the like.
FIG. 2 illustrates one such embodiment. Sodium oxalate and calcium chloride solutions are prepared during steps 200 and 205 respectively. Following mixing during step 210 to obtain supersaturated calcium oxalate medium, also described in FIG. 1, monitoring while incubating during step 215 detects the formation of seed crystals. Next, the medium is removed during step 220 followed by addition of fresh medium containing test components during step 225. The test component(s) are preferably added to the sodium oxalate solution used to make the medium. Alternatively, they could be added in the calcium chloride solution for making the medium, or in a separate solution, or as solids, or even mixed in, or any combination thereof.
Some processing of arrays is also seen in the method illustrated in FIG. 2. Further incubation of seed crystals during step 230 and imaging during step 235 provide data about the growth and/or nucleation of crystals. The high throughput method of FIG. 2 includes estimating a nucleation and/or growth rate from a number of birefringent spots. An increase in the nucleation rate, or observing little or no crystal growth, ascribable to a component may indicate a therapeutic use for treating diseases, conditions, or disorders associated with calculi or crystal deposition (e.g., nephrolithiasis) by reducing the average size of the crystals, stones or calculi to facilitate excretion. Alternatively, a significant decrease in the nucleation rate ascribable to a component may indicate a therapeutic use for treating diseases, conditions, or disorders associated with calculi or crystal deposition (e.g., nephrolithiasis) by decreasing the rate of stone or calculi formation.
The photograph of the illuminated crystals, e.g., obtained in step 235 of FIG. 2, may be further analyzed to estimate a number of pixels corresponding to a crystal spot.
Other properties of crystals may also be obtained from the pixel measurements in step 240 of FIG. 2. The photograph of the illuminated crystals also allows an estimate of a long and a short dimension among many possible measures. These reflect the habit of the crystal spot and may be used to predict crystals that are likely to be excreted more easily. For instance, small and even shaped crystals are more likely to be excreted than spiny crystal shapes, thus permitting high throughput screening for promising therapeutic candidates.
In FIG. 7, during step 700 one or more substances of interest are identified. […] The identified substances, added in solutions of calcium chloride or sodium oxalate, are subjected to screening via a high-throughput growth inhibitor screen during step 705. Accordingly, growth of crystals in supersaturated calcium oxalate medium is observed in the presence or absence of identified substances. Such growth may be of seed crystals or may include nucleation of crystals as well as growth.

[2] = turbidity based assay of crystal nucleation and growth in supersaturated calcium oxalate solutions; conditions: FIG. 10 and FIG. 11
Text: FIG. 10 illustrates the effect of citrate on growth and nucleation of crystals in supersaturated calcium oxalate solutions as measured by turbidity at 620 nm.
FIG. 11 is an example of turbidity based assay showing crystal nucleation and growth in supersaturated calcium oxalate solutions prepared in accordance with the method of FIG. 1.
The system also includes means for preparing metastable formulations such as supersaturated solutions. In a preferred design, supersaturated media for nucleating and growing crystals are prepared by mixing two stable components to give rise to a metastable supersaturated solution. […] This supersaturated mixture may be monitored after incubation for a predetermined duration during step 115. […]
Preferably, calcium oxalate crystals are also used to seed the supersaturated calcium oxalate solution in some samples to assess their growth or the lack thereof. Absorbance at about 620 nm provides a measure of turbidity and a decrease in turbidity indicates either aggregation or crystals/precipitate or reduction in the precipitation/crystal growth of calcium oxalate crystals. It should be noted that turbidity may be measured at other wavelengths as well including wavelengths corresponding to visible light and ultraviolet light. Preferably, but not as a requirement, turbidity is measured by evaluating light scattered at an angle to the incident light. […]

[3] = supersaturated calcium oxalate, amounts and concentrations in FIGS. 9A and 9B

Molecule	large (intermediate to large) crystals: number / size observed [1, 3]	overall effect on calcium oxalate crystals (number of crystals) [1, 3]	other results
O=C([O-])[C@H](O)[C@@H](O)[C@H](O[C@@H]1O[C@H](CO)[C@H](O)[C@H](O)[C@H]1O)[C@H](O)CO.O=C([O-])[C@H](O)[C@@H](O)[C@H](O[C@@H]1O[C@H](CO)[C@H](O)[C@H](O)[C@H]1O)[C@H](O)CO.[Ca+2] [lactobionic acid hemi calcium salt]	presence of very large crystals in some wells	–	–
O=C(O)CNC(=O)c1ccccc1 [hippuric acid]	–	little effect	–
CCCN(CCC)S(=O)(=O)c1ccc(C(=O)O)cc1 [probenicid, reference compound]	–	little effect	small crystals: number observed [1, 3]: a few more small crystals
O=C(O)[C@H](O)[C@@H](O)[C@H](O[C@@H]1O[C@H](CO)[C@H](O)[C@H](O)[C@H]1O)[C@H](O)CO [lactobionic acid]	–	many small and large crystals	–
NS(=O)(=O)c1cc(C(=O)O)c(NCc2ccco2)cc1Cl [furosemide, reference compound]	many more large crystals	–	–
O=C(O)CC(O)(CC(=O)O)C(=O)O [sodium citrate]	–	–	turbidity of supersaturated calcium oxalate compared to supersaturated calcium oxalate by itself ([2]; 3 mM sodium citrate, turbidity at 620 nm): dramatically reduces the turbidity; formation of calcium oxalate crystals in a supersaturated calcium oxalate solution [2]: effective, although limited, in reducing the formation of calcium oxalate crystals
COc1ccc2c(c1)c(CC(=O)O)c(C)n2C(=O)c1ccc(Cl)cc1 [indomethacin, reference compound]	reduction in the number of large crystals	–	small crystals: number observed [1, 3]: little change in the number of small crystals
CN(C)c1ccc2nc3ccc(=[N+](C)C)cc-3sc2c1 [methylene blue, reference compound]	reduction in large crystals	–	–
CC(=O)OC[C@H]1O[C@@](COC(C)=O)(O[C@H]2O[C@H](COC(C)=O)[C@@H](OC(C)=O)[C@H](OC(C)=O)[C@H]2OC(C)=O)[C@@H](OC(C)=O)[C@@H]1OC(C)=O [sucrose octaacetate]	–	increased number (countable) of crystals	–
O=C(O)C(O)c1ccccc1 (stereo not shown) [mandelic acid]	–	little effect	–
O=C(O)C1OC(C(=O)O)C(C(=O)O)C1C(=O)O (stereo not shown) [tetrahydrofuran-2,3,4,5-tetracarboxylic acid]	reduced number of intermediate to large crystals	–	small crystals: number observed [1, 3]: increased number of small crystals
atrolactic acid hemihydrate	–	–	large (intermediate to large) crystals: number / size observed [1]: reduction in large crystals
O=C(O)C(O)c1ccc(Br)cc1 (stereo not shown) [4-bromomandelic acid]	larger sized crystals being formed	–	crystal habit / form of material observed [1, 3]: absence of plate like structures
CCCCCCCCCCCCCCCCC(C(=O)O)C(O)(CC(=O)O)C(=O)O (stereo not shown) [agaric acid]	–	–	crystal habit / form of material observed [1, 3]: formation of an emulsion/suspension
